The text below walks through data of patent publication US9249125B2, “Pyrazole derivatives as p38 MAP inhibitors” (RESPIVERT LIMITED, priority 2012, dated 2016).

For data set [1], the target named is p38 MAPKα (Homo sapiens (Human), UniProt Q16539). As to the kind of experiment: p38 MAPKα enzyme inhibition (FRET, Z-LYTE). Type of data set: biochemical.
The target of data set [2] is cSrc (Homo sapiens (Human), UniProt P12931). As to the kind of experiment: c-Src enzyme inhibition (FRET, Z-LYTE). It is filed as biochemical. In outline: (§1)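 Z-LYTE FRET kinase assay: enzyme (3000 or 2000 ng/mL stock, respectively) preincubated 2 h at RT with compound (4–0.004 μg/mL stocks), then FRET peptide plus ATP (800 μM stock for c-Src, 60 μM for Syk) added for 1 h. Protease development 1 h; phosphorylation from coumarin/fluorescein emission ratio.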

For data set [3], the target named is Syk (Homo sapiens (Human), UniProt P43405). In words: Syk enzyme inhibition (FRET, Z-LYTE). It is filed as biochemical. In outline: as §1
Data set [4] addresses GSK3α (Homo sapiens (Human), UniProt P49840). In words: GSK 3α enzyme inhibition (FRET, Z-LYTE). Type of data set: biochemical. In outline: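 Phosphorylation was read as the donor (coumarin) to acceptor (fluorescein) ratio after a 1 hr protease step destroying non-phosphorylated peptide. Before this, compound (4–0.004 μg/mL stocks) sat 2 hr at RT with GSK3α (500 ng/mL stock), followed by 1 hr kinase reaction with 8 μM peptide and 40 μM ATP stocks.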

For data set [5], the system named is LPS-induced TNFα release in d-U937 cells. As to the kind of experiment: LPS-induced TNFα release in d-U937 cells. Type of data set: cell-based. Particulars: Homo sapiens, dU937, relative to 10 μg/mL BIRB796, read-out: LPS Induced Release of Cytokine in d-937 Cells TNFα REC50. In outline:
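Human monocytic U937 cells were differentiated to macrophage-type cells with PMA (100 ng/mL) for 48 to 72 hr, pre-treated with test compound for 2 hr, then stimulated 4 hr with E. coli O111:B4 LPS (0.1 μg/mL). Supernatant TNFα and IL-8 were measured by sandwich ELISA; REC50 came from concentration-response curves.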

Data set [6] concerns LPS-induced IL-8 release in d-U937 cells. In words: LPS-induced IL-8 release in d-U937 cells. It is filed as cell-based. Particulars: Homo sapiens, dU937, read-out: LPS Induced Release of Cytokine in d-937 Cells IL-8 IC50. The gist of the method: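 Sandwich ELISA of culture supernatant gives TNFα and IL-8 levels after a 4 hr challenge with LPS (0.1 μg/mL, E. coli O111:B4). Before stimulation, macrophage-like U937 cells, obtained by 48–72 hr in PMA at 100 ng/mL, sit with compound for 2 hr. Relative EC50 is derived from concentration-response data.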

Data set [7] relates to Poly I:C-induced ICAM-1 expression in BEAS2B cells. In words: Poly I:C-induced ICAM-1 expression in BEAS2B cells. It is filed as cell-based. The following applies: Homo sapiens, BEAS-2B, read-out: Poly IC induced ICAM1 in BEAS2B IC50. The gist of the method:
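Cell-based ELISA read at 450 nm minus 655 nm, divided by crystal violet OD595 to normalize for cell number, gave ICAM-1 levels. Readout was taken 18 hr after poly I:C (1 μg/mL, Oligofectamine) transfection of human bronchial BEAS2B cells pretreated 2 hr with test compound.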

Data set [8] has as its system d-U937 cells. In words: Cell viability: MTT assay. It is filed as cell-based, human. Particulars: 1 μg/mL. In outline:
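MTT read-out (1 h, absorbance 550 nm) on d-U937 cells after pre-incubation with 1 or 10 μg/mL compound under two regimes: 4 h, 5% FCS, or 24 h, 10% FCS RPMI1640. Values are percent loss of viability relative to vehicle (0.5% DMSO), so increases are reported as negative.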
(In general: Formazan colour is commonly taken as a measure of viable cells.)

pEC50, pIC50: −log10 of the molar value. Where only a bound is given, the exact number is not on record here.

Chain of cSrc (P12931 whole entry, looked up): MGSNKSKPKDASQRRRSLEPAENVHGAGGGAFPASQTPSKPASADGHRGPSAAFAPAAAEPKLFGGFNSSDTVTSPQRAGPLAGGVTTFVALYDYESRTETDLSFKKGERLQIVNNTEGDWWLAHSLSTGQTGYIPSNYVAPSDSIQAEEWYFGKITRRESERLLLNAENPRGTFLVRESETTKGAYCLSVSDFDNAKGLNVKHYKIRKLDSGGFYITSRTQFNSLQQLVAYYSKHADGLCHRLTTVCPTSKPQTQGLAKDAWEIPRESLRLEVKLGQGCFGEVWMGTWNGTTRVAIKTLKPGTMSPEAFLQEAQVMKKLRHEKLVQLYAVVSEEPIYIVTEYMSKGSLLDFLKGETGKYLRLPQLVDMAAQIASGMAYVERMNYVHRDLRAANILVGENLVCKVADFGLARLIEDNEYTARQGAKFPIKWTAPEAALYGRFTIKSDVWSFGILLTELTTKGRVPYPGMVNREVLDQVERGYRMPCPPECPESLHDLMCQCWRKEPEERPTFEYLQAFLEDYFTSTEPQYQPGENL
Chain of GSK3α (P49840 whole entry): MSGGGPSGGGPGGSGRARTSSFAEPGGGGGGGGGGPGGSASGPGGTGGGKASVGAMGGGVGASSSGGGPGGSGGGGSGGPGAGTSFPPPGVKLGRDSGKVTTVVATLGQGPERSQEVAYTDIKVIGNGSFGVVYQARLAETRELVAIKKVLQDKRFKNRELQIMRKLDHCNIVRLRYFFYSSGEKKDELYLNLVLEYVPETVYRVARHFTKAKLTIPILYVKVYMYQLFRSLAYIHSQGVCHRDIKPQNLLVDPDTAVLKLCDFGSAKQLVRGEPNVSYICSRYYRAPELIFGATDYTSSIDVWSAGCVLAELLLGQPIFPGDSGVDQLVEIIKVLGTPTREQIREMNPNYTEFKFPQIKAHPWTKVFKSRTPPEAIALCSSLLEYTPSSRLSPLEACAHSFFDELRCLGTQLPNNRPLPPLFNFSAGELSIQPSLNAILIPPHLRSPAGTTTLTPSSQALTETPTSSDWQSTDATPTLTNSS
Chain of p38 MAPKα (Q16539 whole entry): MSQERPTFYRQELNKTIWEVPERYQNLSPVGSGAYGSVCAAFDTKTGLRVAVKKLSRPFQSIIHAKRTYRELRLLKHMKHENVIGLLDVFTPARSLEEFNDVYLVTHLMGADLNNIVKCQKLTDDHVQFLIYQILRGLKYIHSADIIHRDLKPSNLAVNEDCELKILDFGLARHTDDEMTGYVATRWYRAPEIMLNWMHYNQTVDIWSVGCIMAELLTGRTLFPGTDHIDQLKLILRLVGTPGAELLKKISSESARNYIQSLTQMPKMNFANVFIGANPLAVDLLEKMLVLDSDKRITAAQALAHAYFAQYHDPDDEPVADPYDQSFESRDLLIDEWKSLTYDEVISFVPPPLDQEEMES

For orientation: pIC50 means −log10 of the IC50, conventionally taken in molar units. As for `CC(C)c1cc(NC(=O)Nc2ccc(Oc3ccnc(Nc4ccc5c(c4)NC(=O)C5)n3)c3ccccc23)n(-c2ccc(OCCN3CCOCC3)cc2)n1` [Example 61, 1-(3-isopropyl-1-(4-(2-morpholinoethoxy)phenyl)-1H-pyrazol-5-yl)-3-(4-((2-((2-oxoindolin-6-yl)amino)pyrimidin-4-yl)oxy)naphthalen-1-yl)urea], the pIC50 in data set [1] was 7.85; in data set [2], over 9.00; in data set [3] it was 8.15; in data set [4], 5.81; in data set [6] it was 7.07; in data set [7] it was under 6.87. Also, the pEC50 in data set [5] is 7.73. In addition, the “MTT Assay Cell viability at time point in d-U937 cells 4 h” value in data set [8] was “−ve (−ve and +ve indicate that the value is below and above respectively, the no significant effect threshold, defined as 30% inhibition at 1 μg/mL at the time point indicated.)”. In addition, the “MTT Assay Cell viability at time point in d-U937 cells 24 h” value in data set [8] was “−ve (−ve and +ve indicate that the value is below and above respectively, the no significant effect threshold, defined as 30% inhibition at 1 μg/mL at the time point indicated.)”.
Consider `COc1ccc(-n2nc(C(C)(C)C)cc2NC(=O)Nc2ccc(Oc3ccnc(Nc4ccc5[nH]nc(C(=O)N6CCOCC6)c5c4)n3)c3ccccc23)cn1` [Example 83, 1-(3-(tert-butyl)-1-(6-methoxypyridin-3-yl)-1H-pyrazol-5-yl)-3-(4-((2-((3-(morpholine-4-carbonyl)-1H-indazol-5-yl)amino)pyrimidin-4-yl)oxy)naphthalen-1-yl)urea], for which the pIC50 in data set [1] was 8.00; in data set [2] it was 6.97; in data set [3], 7.20; in data set [4] it was 5.42; in data set [6] it was 8.06; in data set [7], 8.54. Besides, the pEC50 in data set [5] is 9.15. Further, the “MTT Assay Cell viability at time point in d-U937 cells 4 h” value in data set [8] is “−ve (−ve and +ve indicate that the value is below and above respectively, the no significant effect threshold, defined as 30% inhibition at 1 μg/mL at the time point indicated.)”. Moreover, the “MTT Assay Cell viability at time point in d-U937 cells 24 h” value in data set [8] was “−ve (−ve and +ve indicate that the value is below and above respectively, the no significant effect threshold, defined as 30% inhibition at 1 μg/mL at the time point indicated.)”.
On to `CC(C)c1cc(NC(=O)Nc2ccc(Oc3ccnc(Nc4ccc5[nH]ncc5c4)n3)c3ccccc23)n(-c2ccc(OCCN3CCOCC3)cc2)n1` [Example 69, 1-(4-((2-((1H-indazol-5-yl)amino)pyrimidin-4-yl)oxy)naphthalen-1-yl)-3-(3-isopropyl-1-(4-(2-morpholinoethoxy)phenyl)-1H-pyrazol-5-yl)urea], for which the pIC50 was 7.74 in data set [1]; 8.52 in data set [2]; 8.30 in data set [3]; 5.89 in data set [4]; 8.47 in data set [6]; 8.09 in data set [7]. Besides, the pEC50 in data set [5] is 9.40. In addition, in data set [8], the “MTT Assay Cell viability at time point in d-U937 cells 4 h” value is “−ve (−ve and +ve indicate that the value is below and above respectively, the no significant effect threshold, defined as 30% inhibition at 1 μg/mL at the time point indicated.)”. Also, the “MTT Assay Cell viability at time point in d-U937 cells 24 h” value in data set [8] was “−ve (−ve and +ve indicate that the value is below and above respectively, the no significant effect threshold, defined as 30% inhibition at 1 μg/mL at the time point indicated.)”.
